The values that follow come from patent publication US20250236616A1, “IMMUNOMODULATING AZALIDES” (Zoetis Services LLC, priority 2021, published 2025).

pIC50: −log10 of the molar value. Where two headings read alike, the source gives them in different places. Marks after values point to notes of the source that are not given here.

What all share (assay type): cell-based
The subject of assay [1] is BRD pathogens, M. haemolytica and P. multocida. Description: MIC screening panel, BRD pathogens (CLSI broth micro-dilution). An excerpt: Primary screening of the compounds of the invention included the evaluation of antibacterial activity of analogs through determination of microbial inhibition concentration (MIC) as per CLSI guidelines. The screening panel included the relevant BRD pathogens: 1) M. haemolytica (e.g., 12726, 46571 and 49023, all AHDRCC; and 33396 (ATCC)); and 2) P. multocida (e.g., 34135 and 46572 (both AHDRCC) and 43137 (ATCC)). In some instances, H. somni (A700025K) pathogens were also included in the screening panel. The AHDRCC strains originated from the Zoetis BRD/SRD surveillance program and refer to the Animal Health Development and Research Culture Collection. In addition, the screen assessed S. aureus (29213 ATCC) as a representative Gram-positive isolate, E.faecalis (19433 ATCC) as a commensal gram-positive gastrointestinal bacterium and E. coli (100, 3110 and 25922 (ATCC)) for the evaluation of efflux potential. The screening panel BRD pathogens were assessed in determining antibacterial activity of the Formula (1) compounds.
All relevant BRD pathogens were initially screened at a top concentration of 64 μg/mL of a Formula (1) compound in an eleven-point dilution series. […] If an Example was purified further, the MICs moved […] essentially two dilutions across all strains tested in the screening panel.
In-Vitro MIC Model Compounds were analyzed for antibacterial activity against a panel of animal health specific gram-positive and gram-negative clinical strains by diluting compounds in DMSO to an appropriate stock concentration to determine the Minimal Inhibitory Concentration (MIC) via a semi-automated broth micro-dilution method (CLSI reference method) with QC strains and anti-microbial agent(s). Specifically, bacteria were grown overnight on TSA w/5% sheep blood agar plates and diluted in saline buffer to a McFarland Standard 0.5, then further diluted in cation-ion adjusted Mueller Hinton Broth to a final concentration of approximately 5×10^5 CFU/mL. 100 μL of inoculated media was added to 96-well plate(s) with 3 μL of serially diluted compound in each row. Depending on strain (see CLSI reference method), bacteria were incubated 18-22 hours at 35-37° C. in ambient air, with 5% CO2 or anaerobically (up to 48 hours).
(Broth dilution looks for growth in wells or tubes with falling amounts of substance.)

A further assay concerns IL-1β. The assay is described as follows: Whole bovine blood assay, LPS-induced IL-1β (inhibition / overstimulation). To be noted: drug concentration giving overstimulation (OS) of LPS-induced IL-1β, top concentration 250 μM. In short, it runs like this:
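IL-1β was quantified by MSD U-Plex chemiluminescence in plasma and normalized to BCA total protein. Bovine blood was pretreated 4 h at 37 °C with compound dilutions before 18 h LPS challenge (1 μg/mL final). Rising IL-1β at high concentrations was recorded as overstimulation.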

Another assay concerns TNF-α. The assay is described as follows: Whole bovine blood assay, LPS-induced TNF-α. To be noted: fresh whole bovine blood, LPS stimulant; top drug concentration 250 μM. The gist of the method:
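Fresh heparinized bovine whole blood was preincubated with compound 4 h at 37 °C, then stimulated with LPS (final 1 μg/mL) for 18 h at 37 °C. Plasma TNF-α was quantified by MSD U-Plex chemiluminescent immunoassay, normalized to total protein (BCA), and IC50 taken for LPS-induced TNF-α inhibition.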

A further assay has as its system IL-6. Description: Whole bovine blood assay, LPS-induced IL-6. To be noted: fresh whole bovine blood, LPS stimulant; top drug concentration 250 μM.
Setting [2] is: Table B, at least one BRD pathogenic strain, top concentration 64 μg/mL, read-out: MIC flag (*) for BRD pathogenic strains.
Where [3] appears, read: Table B, at least one BRD pathogenic strain, top concentration 64 μg/mL.

For the molecule `CC[C@H]1OC(=O)[C@H](C)[C@@H](O[C@H]2C[C@@](C)(OC)[C@](O)(CC#N)[C@H](C)O2)[C@H](C)[C@@H](O[C@@H]2O[C@H](C)C[C@H](N(C)S(=O)(=O)c3ccc(Cl)cc3)[C@H]2O)[C@](C)(O)C[C@@H](C)CN[C@H](C)[C@@H](O)[C@]1(C)O` [Example A6-1, 4-chloro-N-((2S,3R,4S,6R)-2-(((2R,3S,4R,5R,8R,10R,11R,12S,13S,14R)-13-(((2R,4R,5S,6S)-5-(cyanomethyl)-5-hydroxy-4-methoxy-4,6-dimethyltetrahydro-2H-pyran-2-yl)oxy)-2-ethyl-3,4,10-trihydroxy-3,5,8,10,12,14-hexamethyl-15-oxo-1-oxa-6-azacyclopentadecan-11-yl)oxy)-3-hydroxy-6-methyltetrahydro-2H-pyran-4-yl)-N-methylbenzenesulfonamide], the MIC in assay [1] (BRD pathogens M. haemolytica and P. multocida, read-out: antibacterial / non-antibacterial (MIC class)) was > 64 µg/mL.

On to `CCCNC[C@]1(O)[C@H](C)O[C@@H](O[C@H]2[C@H](C)[C@@H](O[C@@H]3O[C@H](C)C[C@H](N(C)S(=O)(=O)NCCc4ccccc4)[C@H]3O)[C@](C)(O)C[C@@H](C)CN[C@H](C)[C@@H](O)[C@](C)(O)[C@@H](CC)OC(=O)[C@@H]2C)C[C@@]1(C)OC` [Example B-40, (2R,3S,4R,5R,8R,10R,11R,12S,13S,14R)-2-ethyl-3,4,10-trihydroxy-13-[(2R,4R,5S,6S)-5-hydroxy-4-methoxy-4,6-dimethyl-5-(propylaminomethyl)oxan-2-yl]oxy-11-[(2S,3R,4S,6R)-3-hydroxy-6-methyl-4-[methyl (2-phenylethylsulfamoyl)amino]oxan-2-yl]oxy-3,5,8,10,12,14-hexamethyl-15-oxo-1-oxa-6-azacyclopentadecane], for which the MIC in assay [1] (setting [2]) was ≤ 64 µg/mL.

In the case of `CCCNC[C@]1(O)[C@H](C)OC(O[C@H]2[C@H](C)[C@@H](O[C@@H]3O[C@H](C)C[C@H](N(C)S(=O)(=O)c4c(C)noc4C)[C@H]3Oc3ccc(OC)cc3)[C@](C)(O)C[C@@H](C)CN[C@H](C)[C@@H](O)[C@](C)(O)[C@@H](CC)OC(=O)[C@@H]2C)C[C@@]1(C)OC` (stereo partly drawn) [Example B-116], the “MIC flag (*) for BRD pathogenic strains” value in assay [1] (setting [3]) is “B-116* (MIC ≤64 μg/mL for at least one BRD pathogenic strain)”.

For the molecule `CCCNC[C@]1(O)[C@H](C)O[C@@H](O[C@H]2[C@H](C)[C@@H](O[C@@H]3O[C@H](C)C[C@H](N(C)S(=O)(=O)c4ccccc4)[C@H]3Oc3ccc(F)cc3)[C@](C)(O)C[C@@H](C)CN(CC)[C@H](C)[C@@H](O)[C@](C)(O)[C@@H](CC)OC(=O)[C@@H]2C)C[C@@]1(C)OC` [Example B-161, N-((2S,3R,4S,6R)-2-(((2R,3S,4R,5R,8R,10R,11R,12S,13S,14R)-2,6-diethyl-3,4,10-trihydroxy-13-(((2R,4R,5S,6S)-5-hydroxy-4-methoxy-4,6-dimethyl-5-((propylamino)methyl)tetrahydro-2H-pyran-2-yl)oxy)-3,5,8,10,12,14-hexamethyl-15-oxo-1-oxa-6-azacyclopentadecan-11-yl)oxy)-3-(4-fluorophenoxy)-6-methyltetrahydro-2H-pyran-4-yl)-N-methylbenzenesulfonamide], in assay [1] (setting [2]), the MIC is ≤ 64 µg/mL.

By minimal effective concentration is commonly meant the smallest amount tested that counted as effective. A low value points to an effect from little substance. For orientation: pIC50 means −log10 of the IC50, conventionally taken in molar units. Lower therefore signals a high IC50. `CC[C@H]1OC(=O)[C@H](C)[C@@H](O[C@H]2C[C@@](C)(OC)[C@](O)(CN3CCCCC3)[C@H](C)O2)[C@H](C)[C@@H](O[C@@H]2O[C@H](C)C[C@H](N(C)S(=O)(=O)N(CC)CC)[C@H]2O)[C@](C)(O)C[C@@H](C)CN[C@H](C)[C@@H](O)[C@]1(C)O` [Example C-35] yielded a minimal effective concentration in the assay on IL-1β of 11 µM. The results for the pIC50 with TNF-α and with IL-6 were 4.48 and 4.64, respectively.

For the molecule `CC[C@H]1OC(=O)[C@H](C)[C@@H](O[C@H]2C[C@@](C)(OC)[C@](O)(CN3CCCCC3)[C@H](C)O2)[C@H](C)[C@@H](O[C@@H]2O[C@H](C)C[C@H](N(CC(C)C)S(=O)(=O)Nc3ccc(C(F)(F)F)cc3)[C@H]2O)[C@](C)(O)C[C@@H](C)CN[C@H](C)[C@@H](O)[C@]1(C)O` [Example C-44], the minimal effective concentration with IL-1β is listed as 6 µM. Further, the pIC50 in the assay on TNF-α and in the assay on IL-6 was 5.40 throughout.

Consider `CC[C@H]1OC(=O)[C@H](C)[C@@H](O[C@H]2C[C@@](C)(OC)[C@](O)(CN3CCCCC3)[C@H](C)O2)[C@H](C)[C@@H](O[C@@H]2O[C@H](C)C[C@H](N(C)S(=O)(=O)c3ccccc3)[C@H]2Oc2ccc(Cl)cn2)[C@](C)(O)C[C@@H](C)CN[C@H](C)[C@@H](O)[C@]1(C)O` [Example C-48], for which, in the assay with IL-1β, the minimal effective concentration was determined as 6 µM. In addition, the results for the pIC50 with TNF-α and in the assay with IL-6 were 5.40 and 5.22, respectively.

With `CC[C@H]1OC(=O)[C@H](C)[C@@H](O[C@H]2C[C@@](C)(OC)[C@](O)(CN3CCCCC3)[C@H](C)O2)[C@H](C)[C@@H](O[C@@H]2O[C@H](C)C[C@H](N(C)S(=O)(=O)c3nccn3C)[C@H]2Oc2ccnc(F)c2)[C@](C)(O)C[C@@H](C)CN[C@H](C)[C@@H](O)[C@]1(C)O` [Example C-49], in the assay with IL-1β, the minimal effective concentration is 6 µM. Also, the pIC50 in the assay on TNF-α was 5.22; in the assay on IL-6, 5.05.

In the case of `CC[C@H]1OC(=O)[C@H](C)[C@@H](O[C@H]2C[C@@](C)(OC)[C@](O)(CN3CCCCC3)[C@H](C)O2)[C@H](C)[C@@H](O[C@@H]2O[C@H](C)C[C@H](N(C)S(=O)(=O)c3ccccc3)[C@H]2Oc2ccccc2)[C@](C)(O)C[C@@H](C)CN[C@H](C)[C@@H](O)[C@]1(C)O` [Example C-53], the minimal effective concentration in the assay with IL-1β turned out to be 6 µM. Further, the pIC50 in the assay on TNF-α and in the assay on IL-6 was 5.70 throughout.

`CC[C@H]1OC(=O)[C@H](C)[C@@H](O[C@H]2C[C@@](C)(OC)[C@](O)(CN3CCCCC3)[C@H](C)O2)[C@H](C)[C@@H](O[C@@H]2O[C@H](C)C[C@H](N(C)S(=O)(=O)c3ccccc3)[C@H]2Oc2ccc(F)cc2)[C@](C)(O)C[C@@H](C)CN[C@H](C)[C@@H](O)[C@]1(C)O` [Example C-54] yielded a minimal effective concentration in the assay with IL-1β of 6 µM. Moreover, the pIC50 in the assay with TNF-α is 5.70; with IL-6 it was 5.40.

For the molecule `CC[C@H]1OC(=O)[C@H](C)[C@@H](O[C@H]2C[C@@](C)(OC)[C@](O)(CN3CCCCC3)[C@H](C)O2)[C@H](C)[C@@H](O[C@@H]2O[C@H](C)C[C@H](N(C)S(=O)(=O)c3ccccc3)[C@H]2Oc2ccnc(F)c2)[C@](C)(O)C[C@@H](C)CN[C@H](C)[C@@H](O)[C@]1(C)O` [Example C-55], in the assay on IL-1β, the minimal effective concentration is recorded as 6 µM. Moreover, the pIC50 in the assay with TNF-α is 5.22; in the assay on IL-6, 5.05.

The molecule `CCCNC[C@]1(O)[C@H](C)O[C@@H](O[C@H]2[C@H](C)[C@@H](O[C@@H]3O[C@H](C)C[C@H]4[C@H]3OS(=O)(=O)N4C)[C@](C)(O)C[C@@H](C)CN[C@H](C)[C@@H](O)[C@](C)(O)[C@@H](CC)OC(=O)[C@@H]2C)C[C@@]1(C)OC` [Example D-1] had a minimal effective concentration in the assay on IL-1β of 16 µM. Further, the pIC50 in the assay on TNF-α is 5.30; in the assay with IL-6, 4.57.

“(2R,3S,4R,5R,8R,10R,11R,12S,13S,14R)-2-ethyl-3,4,10-trihydroxy-13-[(2R,4R,5S,6S)-5-hydroxy-4-methoxy-4,6-dimethyl-5-(propylaminomethyl) oxan-2-yl]oxy-11-[(2S,3R,4S,6R)-3-hydroxy-6-methyl-4-[methyl-[[4-(trifluoromethyl)phenyl]sulfamoyl]-amino]oxan-2-yl]oxy-3,5,6,8,10,12,14-heptamethyl-15-oxo-1-oxa-6-azacyclopentadecane [Example B-159]” gave a pIC50 in the assay with TNF-α of 5.40. Further, the “MIC flag (*) for BRD pathogenic strains” value in assay [1] (setting [3]) was “B-159* (MIC ≤64 μg/mL for at least one BRD pathogenic strain)”.
